Reference: patent US10196363B2, “Dihydropyrimidin-2-one compounds and medical use thereof” (JAPAN TOBACCO INC., priority 2014, dated 2019)
Like-named read-outs stand apart in the source and are kept apart here.

How the values were obtained:
[1] = molecular target: T1, human RORγ (Homo sapiens, UniProt P51449); test: In vitro assay of inhibitory effect against RORγ transcriptional activity (GAL4-hRORγ LBD luciferase reporter gene assay in CHO cells); format: cell-based; details: for hRORγ luciferase activity, %-of-control: vehicle-control 0.2% DMSO alone = 100%
T1 construct: human RORγ, from Ser253 to Lys518; expressed in transfected cells; host or cells: CHO cells (Chinese hamster ovary), transient co-transfection with pG5-Luc
T1 sequence (P51449 253-518): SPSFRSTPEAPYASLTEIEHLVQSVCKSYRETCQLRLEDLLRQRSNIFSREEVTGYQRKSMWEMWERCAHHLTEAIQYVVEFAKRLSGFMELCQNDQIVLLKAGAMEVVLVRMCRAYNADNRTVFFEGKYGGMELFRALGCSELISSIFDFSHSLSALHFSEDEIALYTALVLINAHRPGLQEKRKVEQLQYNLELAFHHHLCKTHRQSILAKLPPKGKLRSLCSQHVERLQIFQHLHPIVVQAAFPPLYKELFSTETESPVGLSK
Method: (§1) In Vitro Assay of Inhibitory Effect Against RORγ Transcriptional Activity
(§2) Inhibitory effect of a test article on transcriptional activity of RORγ was measured by means of the following reporter gene assay.
(§3) cDNA encoding human and mouse RORγ ligand binding domain (LBD) were obtained based on the sequences of human RORγ (Genebank registered number NM_005060.3) and mouse RORγ (Genebank registered number NM_011281.2) (LBD sequence: human RORγ, from Ser253 to Lys518; mouse RORγ, from Ile251 to Lys516).
(§4) The LBD cDNA of human or mouse RORγ was inserted into pFA-CMV vector (Strategene), which expresses GAL4-DNA binding domain fusion protein. The resulting plasmids are hereinafter referred to as GAL4-hRORγ plasmid and GAL4-mRORγ plasmid, respectively.
(§5) GAL4-hRORγ plasmid or GAL4-mRORγ plasmid was transiently co-transfected into Chinese hamster ovary cells (CHO cells) with pG5-Luc (Promega), a reporter plasmid expressing firefly luciferase depending on GAL4.
(§6) TransIT (Registered trademark) CHO transfection reagent (Mirus) was used to co-transfect GAL4-hRORγ plasmid or GAL4-mRORγ plasmid into CHO cells with pG5-Luc plasmid. One day before the assay, CHO cells were suspended in HAM F-12 Nutrient medium containing 10 v/v % fetal bovine serum and seeded at 6×10^6 cells per 175 cm^2 cell culture flask. Fifty four micro litters of TransIT (Registered trademark) CHO reagent was added into a 15 ml tube containing 1.16 mL of HAM F-12 Nutrient medium without fetal bovine serum, and mixed and incubated at room temperature for 10 min. Thirty six micro litters of plasmid solution containing the GAL4-hRORγ plasmid (400 ng), pG5-Luc plasmid (9000 ng) and pcDNA3 plasmid (8600 ng) were added into the tube and mixed gently. In case of mouse assay, a plasmid solution containing the GAL4-mRORγ plasmid (250 ng), pG5-Luc plasmid (9000 ng) and pcDNA3 plasmid (8750 ng) was added, instead. The mixture was incubated at room temperature for 10 min. Nine micro litters of CHO Mojo Reagent were then added into each tube and mixed gently. The mixture was incubated at room temperature for 10 min. The resultant transfection reagent was applied to the cell culture. After incubation at 37° C., 5% CO2 for 4 hours, the plasmid-transfected CHO cells were harvested with a trypsin treatment. The collected cells were resuspended in HAM F-12 Nutrient medium supplemented with 10 v/v % fetal bovine serum and plated into a 384-well-white plate at 8,000 cells/50 μL/well. The plate was incubated at room temperature for 1 hour and then further incubated at 37° C., 5% CO2 for 3 hours. The test articles were dissolved in dimethylsulfoxide (DMSO) to obtain a concentration of 10 mM. The resulting solution was diluted with a medium just before use and added to the cells in the plate to prepare 8 different concentrations of the test article. The final concentration of DMSO was 0.2 v/v %. After the addition of the test articles, the cells were incubated at 37° C., 5% CO2 for 2 days.
(§7) RORγ transcriptional activity was detected as the intracellular luciferase activity using SteadyLite HTS Reporter Gene Assay System (Perkin Elmer). StedyLite Reagent was diluted five-fold into a solution containing Extension reagent (10 mM Tricine, 0.2% w/v BSA, 0.02% v/v Tween-20) to obtain the luciferase substrate solution. After the measurement of the cell viability using Resazurin, the culture media in the plate were removed, and then the luciferase substrate solution was added into each well. After the incubation at room temperature for 10 minutes, luminescence of each well was measured by a microplate reader. The luciferase activity derived from the luminescence count in the vehicle-control well treated with 0.2% DMSO alone was defined as 100%, and the luciferase activity in the test article was calculated as a percentage (%-of-control) based on the value of the vehicle-control. EC50 value of test article was calculated by curve fitting with GraphPad Prism. […]

[2] = molecular target: T2, mouse RORγ (Mus musculus, UniProt P51450); test: In vitro assay of inhibitory effect against RORγ transcriptional activity (GAL4-mRORγ LBD luciferase reporter gene assay in CHO cells); format: cell-based; details: for mRORγ luciferase activity, %-of-control: vehicle-control 0.2% DMSO alone = 100%
T2 construct: mouse RORγ, from Ile251 to Lys516; expressed in transfected cells; host or cells: CHO cells (Chinese hamster ovary), transient co-transfection with pG5-Luc
T2 sequence (P51450 251-516): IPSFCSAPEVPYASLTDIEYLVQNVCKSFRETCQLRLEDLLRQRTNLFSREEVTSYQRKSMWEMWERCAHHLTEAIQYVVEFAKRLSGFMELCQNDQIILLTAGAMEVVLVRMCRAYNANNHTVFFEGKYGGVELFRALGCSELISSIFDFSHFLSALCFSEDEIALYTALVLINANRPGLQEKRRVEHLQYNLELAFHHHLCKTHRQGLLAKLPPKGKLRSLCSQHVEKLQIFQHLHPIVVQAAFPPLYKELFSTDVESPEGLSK
Method: as §1, §2, §3, §4, §5, §6, §7

[3] = GAL4-hRORγ LBD / pG5-Luc in CHO cells, 2 days incubation
[4] = GAL4-mRORγ LBD / pG5-Luc in CHO cells, 2 days incubation
[5] = GAL4-hRORγ LBD luciferase reporter, CHO cells, read-out: LUC EC50 hRORγ
[6] = GAL4-mRORγ LBD luciferase reporter, CHO cells, read-out: LUC EC50 mRORγ
[7] = value in parentheses beside the > EC50 bound
[8] = value in parentheses beside the EC50 bound

| EC50 [1, 3] [nM] | EC50 [2, 4] [nM] | EC50 [1, 5] [nM] | EC50 [2, 6] [nM] | Structure (SMILES) | also measured |
| --- | --- | --- | --- | --- | --- |
| 1010 | 245 | – | – | CC(C)C1=CN(CCC(=O)O)C(=O)N[C@@]1(C)c1ccc(C2=CCCC2)c(Cl)c1 [Example 149] | – |
| – | – | 5 | 13 | COCC(C)C1=CN(c2ccc(C(=O)O)cc2)C(=O)N[C@@]1(C)c1ccc(CCC(C)(C)C)c(Cl)c1 (single isomer, unassigned) [Example 307] | – |
| 327 | 116 | – | – | CC(C)C1=CN(CCC(=O)O)C(=O)N[C@@]1(C)c1ccc(C2CCC2)c(Cl)c1 [Example 153] | – |
| – | – | 44 | 61 | CC(C)C1=CN(c2cc(C(=O)O)nn2C)C(=O)N[C@@]1(C)c1ccc(CCC(C)(C)C)c(Cl)c1 [Example 297] | – |
| – | – | 10 | 21 | CC(C)(C)CCc1ccc([C@]2(C)NC(=O)N(CC3CC(F)(F)C3)C=C2[C@H]2C[C@@H](C(=O)O)C2)cc1Cl [Example 248] | – |
| – | – | 46 | 39 | CC(C)CCOc1ccc([C@]2(C)NC(=O)N(c3ccc(C(=O)O)cc3)C=C2C2CC(F)(F)C2)cc1Cl [Example 348] | – |
| 1250 | 1650 | – | – | CC(C)(C)CCc1ccc([C@@]2(C)NC(=O)N(CCCC(=O)O)C=C2C2CCC2)cc1Cl [Example 58] | – |
| – | – | 3 | 6 | COCC(C)C1=CN(CCC(=O)O)C(=O)N[C@@]1(C)c1ccc(CCC(C)(C)C)c(Cl)c1 (single isomer, unassigned) [Example 305] | – |
| – | – | 261 | 301 | CCOC(=O)C1CNCC1N1C=C(C(C)C)[C@](C)(c2ccc(CCC(C)(C)C)c(Cl)c2)NC1=O (single isomer, unassigned) [Example 245] | – |
| > 3200 | 5680 | – | – | CC(C)(C)CCc1ccc([C@@]2(C)NC(=O)N([C@H]3C[C@H](C(=O)O)C3)C=C2C2CC(F)(F)C2)cc1Cl [Example 95] | hRORγ luciferase activity, %-of-control [1, 7]: (66%) |
| – | – | 439 | 492 | CC(C)C1=CN(CCC(=O)O)C(=O)N[C@@]1(C)c1ccc(CCC(C)(C)CO)c(Cl)c1 [Example 260] | – |
| – | – | 113 | 52 | CC(C)(C)COc1ccc([C@]2(C)NC(=O)N(C34CC(C(=O)O)(C3)C4)C=C2C2CC(F)(F)C2)cc1Cl [Example 355] | – |
| 22 | 26 | – | – | CC(C)C1=CN(CCC(C)(C)C(=O)O)C(=O)N[C@@]1(C)c1ccc(CCC(C)(C)C)c(Cl)c1 [Example 55] | – |
| 27 | 76 | – | – | CC(C)(C)CCc1ccc(C2(C)NC(=O)N([C@H]3C[C@H](CO)C3)C=C2C(C)(C)CCC(=O)O)cc1Cl (single isomer, unassigned) [Example 182] | – |
| – | – | > 20000 | > 20000 | CC(C)CS(=O)(=O)c1ccc([C@]2(C)NC(=O)N(CCC(=O)O)C=C2C(C)C)cc1Cl [Example 219] | hRORγ luciferase activity, %-of-control [1, 8]: (88%); mRORγ luciferase activity, %-of-control [2, 8]: (86%) |
| 36 | 21 | – | – | CCCCCc1ccc(C2(C)NC(=O)N(CCCC(=O)O)C=C2C(C)C)cc1Cl (racemic) [Example 53] | – |
| – | – | 542 | 1210 | COCCN1C=C(c2cncc(C(=O)O)c2)[C@](C)(c2ccc(CCC(C)(C)C)c(Cl)c2)NC1=O [Example 275] | – |

| EC50 [1, 3] [nM] | EC50 [2, 4] [nM] | EC50 [1, 5] [nM] | EC50 [2, 6] [nM] | Structure (SMILES) | also measured |
| --- | --- | --- | --- | --- | --- |
| 30 | 23 | – | – | CC(C)C1=CN(CCC(=O)O)C(=O)N[C@@]1(C)c1ccc(CC[Si](C)(C)C)c(Cl)c1 [Example 158] | – |
| 187 | 82 | – | – | CCCCc1ccc(C2(C)NC(=O)N(CCCC(=O)O)C=C2C(C)C)cc1Cl (racemic) [Example 28] | – |
| – | – | 13 | 19 | COCCC1=CN(c2ccc(C(=O)O)cc2)C(=O)N[C@@]1(C)c1ccc([C@H]2C[C@@H](C(C)(C)C)C2)c(Cl)c1 [Example 315] | – |
| 13 | 18 | – | – | CC(C)C1=CN(CC2(C(=O)O)CC2)C(=O)N[C@@]1(C)c1ccc(CCC(C)(C)C)c(Cl)c1 [Example 98] | – |
| 26 | 46 | – | – | CC(C)(C)CCc1ccc([C@]2(C)NC(=O)N(CCCC(=O)O)C=C2C2CCCCC2)cc1Cl [Example 32] | – |
| – | – | 21 | 19 | COC(C)CC1=CN(CCC(=O)O)C(=O)N[C@@]1(C)c1ccc([C@H]2C[C@@H](C(C)(C)C)C2)c(Cl)c1 (stereo partly shown) [Example 304] | – |
| – | – | 343 | 123 | CC(C)C1=CN(CCC(=O)O)C(=O)N[C@@]1(C)c1ccc(SC2CCCC2)c(Cl)c1 [Example 224] | – |
| 118 | 78 | – | – | CC(C)COc1ccc([C@]2(C)NC(=O)N(CCC(=O)O)C=C2C(C)C)cc1Cl [Example 183] | – |
| – | – | > 8000 | > 8000 | COC(=O)[C@H]1C[C@H](N2C=C(C(C)(C)CCCO)[C@@](C)(c3ccc(CCC(C)(C)C)c(Cl)c3)NC2=O)C1 (single isomer, unassigned) [Example 190] | hRORγ luciferase activity, %-of-control [1, 8]: (74%); mRORγ luciferase activity, %-of-control [2, 8]: (66%) |
| – | – | 75 | 34 | CC(C)C1=CN(CCC(=O)O)C(=O)N[C@@]1(C)c1ccc(CCC(C)(C)C)cc1 [Example 253] | – |
| 33 | 26 | – | – | CC(C)(C)CCc1ccc([C@]2(C)NC(=O)N([C@H]3C[C@H](C(=O)O)C3)C=C2C2CC(F)(F)C2)cc1Cl [Example 96] | – |
| > 8000 | > 8000 | – | – | CC(C)C1=CN(CCCC(=O)O)C(=O)N[C@]1(C)c1ccc(CCC2CCC2)c(Cl)c1 [Example 109] | hRORγ luciferase activity, %-of-control [1, 7]: (60%); mRORγ luciferase activity, %-of-control [2, 7]: (67%) |
| – | – | 10 | 22 | CC(C)(C)CCc1ccc([C@]2(C)NC(=O)N(C3CCC(F)(F)CC3)C=C2[C@H]2C[C@@H](C(=O)O)C2)cc1Cl [Example 246] | – |
| – | – | 30 | 33 | CC(C)C1=CN(CCC(=O)O)C(=O)N[C@@]1(C)c1ccc(C=C2CCCCC2)c(Cl)c1 [Example 267] | – |
| – | – | 32 | 32 | CC(C)C1=CN(C2(CC(=O)O)CC2)C(=O)N[C@@]1(C)c1ccc(CCC(C)(C)C)c(Cl)c1 [Example 228] | – |
| – | – | 11 | 8 | COCCC1=CN(CCC(=O)O)C(=O)N[C@@]1(C)c1ccc(CCC(C)(C)C)c(Cl)c1 [Example 211] | – |
